Test results: patent US20060079453A1, “Hla binding peptides and their uses” (priority 2002, published 2006)
No end group written: not given here.

Key:
Experiment in all cases: biochemical
Type in all cases: binding
HLA-DR DRB1*0101 (DR1) = HLA-DR DRB1*0101 (DR1) (Homo sapiens, UniProt P01903+P01911, A100R/D57E/F55L/F60I/F76Y/I96L/L162R/M171V/P40L/Q125E/R42F/V115G/Y59C); conditions: DRB1 *0101
HLA-DR DRB1*0301 (DR3) = HLA-DR DRB1*0301 (DR3) (Homo sapiens, UniProt P01903+P01911, A100K/A102G/A103R/A169T/F55Y/I96L/K41T/L162R/M171V/P40S/Q125H/Q178H/Q39Y/R42S/S66N/T106N/T262R/W38E/Y61H)
HLA-DR DRB1*0401 (DR4) = HLA-DR DRB1*0401 (DR4) (Homo sapiens, UniProt P01903+P01911, A100K/A169T/F76Y/I96L/K127E/L162R/M171V/N62H/P40V/Q125Y/R42H/S133A/S149N/S66Y/V115G/V209L/W38E); conditions: DRB1 *0401
HLA-DR DRB1*0405 (DR4) = HLA-DR DRB1*0405 (DR4) (Homo sapiens, UniProt P01903+P01911, A100R/A169T/D86S/F76Y/I96L/K127E/L162R/M171V/N62H/P40V/Q125Y/R42H/S133A/S149N/S66Y/V115G/V209L/W38E); conditions: DRB1 *0405
HLA-DR DRB1*0701 (DR7) = HLA-DR DRB1*0701 (DR7) (Homo sapiens, UniProt P01903+P01911, A100R/A102G/A103Q/D57E/D86V/E43K/F76Y/K127E/L162R/M171V/P40G/Q125H/Q99D/R33Q/R42Y/R54Q/S133A/S66F/T210M/V115G/Y107V/Y59L/Y89S); conditions: DRB1 *0701
HLA-DR DRB1*0802 (DR8) = HLA-DR DRB1*0802 (DR8) (Homo sapiens, UniProt P01903+P01911, A100R/A103L/A169T/F76Y/H45Y/I96F/K41T/L162R/M171V/P40S/Q125H/Q178H/Q39Y/Q99D/R218S/R42G/S66Y/V115G/W38E)
HLA-DR DRB1*1101 (DR11) = HLA-DR DRB1*1101 (DR11) (Homo sapiens, UniProt P01903+P01911, A100R/A169T/A87E/I96F/K41T/L162R/M171V/P40S/Q125H/Q178H/Q39Y/Q99D/R42S/S66Y/T262R/V115G/W38E); conditions: DRB1 *1101
HLA-DR DRB1*1302 (DR13) = HLA-DR DRB1*1302 (DR13) (Homo sapiens, UniProt P01903+P01911, A100E/A169T/K41T/L162R/M171V/P40S/Q125H/Q178H/Q39Y/Q99D/R42S/S66N/T262R/V115G/W38E/Y61H); conditions: DRBI *1302
HLA-DR DRB1*1501 (DR15) = HLA-DR DRB1*1501 (DR15) (Homo sapiens, UniProt P01903+P01911); conditions: DRBI *1501
HLA-DR DRB3*0101 (DR52) = HLA-DR DRB3*0101 (DR52) (Homo sapiens, UniProt P01903+P79483)
HLA-DR DRB4*0101 (DR53) = HLA-DR DRB4*0101 (DR53) (Homo sapiens, UniProt P01903+P13762, G164S); conditions: DRB4 *0101
HLA-DR DRB1*0901 (DR9) = HLA-DR DRB1*0901 (DR9) (Homo sapiens, UniProt P01903+P01911, A100R/A103E/D57H/D86V/F55Y/F60I/F76Y/I96F/K127E/L162R/M171V/P40D/Q125H/Q99R/R33Q/R42F/S133A/S66N/T210M/V115G/W38K/Y107V/Y59G/Y89S); conditions: DRB1 *0901
HLA-DR DRB5*0101 (DR51) = HLA-DR DRB5*0101 (DR51) (Homo sapiens, UniProt P01903+Q30154); conditions: DRB5 *0101

Chain of HLA-DR DRB1*0301 (DR3) (P01903 26-254 limits assumed, other chains not shown): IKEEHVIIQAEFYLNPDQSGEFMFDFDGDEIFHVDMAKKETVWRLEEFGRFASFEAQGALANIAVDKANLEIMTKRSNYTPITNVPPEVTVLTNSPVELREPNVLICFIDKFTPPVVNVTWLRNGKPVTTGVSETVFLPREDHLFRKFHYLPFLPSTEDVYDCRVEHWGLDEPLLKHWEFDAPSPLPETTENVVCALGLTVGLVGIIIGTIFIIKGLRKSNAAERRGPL
Chain of HLA-DR DRB1*1302 (DR13) (P01903 26-254 limits assumed, other chains not shown): as above
Chain of HLA-DR DRB1*1101 (DR11) (P01903 26-254 limits assumed, other chains not shown): as above

Row | Sequence | IC50 (HLA-DR DRB1*0101 (DR1)) [nM] | IC50 (HLA-DR DRB1*0301 (DR3)) [nM] | IC50 (HLA-DR DRB1*0401 (DR4)) [nM] | IC50 (HLA-DR DRB1*0405 (DR4)) [nM] | IC50 (HLA-DR DRB1*0701 (DR7)) [nM] | IC50 (HLA-DR DRB1*0802 (DR8)) [nM] | IC50 (HLA-DR DRB1*1101 (DR11)) [nM] | IC50 (HLA-DR DRB1*1302 (DR13)) [nM] | IC50 (HLA-DR DRB1*1501 (DR15)) [nM] | IC50 (HLA-DR DRB3*0101 (DR52)) [nM] | IC50 (HLA-DR DRB4*0101 (DR53)) [nM] | IC50 (HLA-DR DRB1*0901 (DR9)) [nM] | IC50 (HLA-DR DRB5*0101 (DR51)) [nM]
1 | QTQKLLWQLNGRLEY | 32 | 3550 | 55 | 86 | 3100 | 2040 | 20700 | 121 | 20 | 6580 | 88 | – | –
2 | QCQKLLWQLNGRLEY | – | 133000 | 360 | 1000 | 3700 | 2520 | 1640 | – | – | 8710 | 209 | 4670 | 924
3 | TSLTFSESIPTPSNR | – | 17400 | 18 | 686 | – | 17600 | 22200 | 16 | – | > 95200 | 3480 | 2460 | > 1340
4 | VEALYLVCGERGFFY | 76 | 17600 | 209 | 1040 | 3870 | 24600 | 3560 | 4400 | – | 4440 | 30 | 2230 | 25500
5 | HLKRYYGRILHYLKA | 26 | 3710 | – | 86 | 214 | 237 | – | 868 | 0.69 | 6610 | 22 | 2900 | 2.3
6 | RSSNTQTQKLLWQLN | 10500 | 44300 | 2140 | 12600 | 27700 | 1280 | > 42600 | – | 2740 | 751 | 26 | > 77300 | 8550
